What all share (format): in vivo
In experiment [1] the test system is Zea mays. Briefly: Example 4 post-emergence application A-1, B and C-19, ZEAMX. The settings on record: growth stage 12, 21 DAT, g ai/ha: A-1 2, B 50, C-19 30. The method, then: In the examples below, using the method of S. R. Colby (1967) “Calculating synergistic and antagonistic responses of herbicide combinations”, Weeds 15, p. 22ff., the value E, which is expected if the activity of the individual active compounds is only additive, was calculated:
[formula] • where • X=percent activity using active herbicide A at an application rate a; • Y=percent activity using active herbicide B (e.g. mesotrione) at an application rate b; • E=expected activity (in %) by A+B at application rates a+b.
If the value found experimentally is higher than the value E calculated according to Colby, a synergistic effect is present.
Evaluation was carried out using a scale from 0 to 100. 100 means no emergence of the plants, or complete destruction of at least the above-ground parts, and 0 means no damage or normal course of growth. A good herbicidal activity is given at values of at least 70, and very good herbicidal activity is given at values of at least 85.
Post-Emergence Application of Herbicide A-1 (A-1), Mesotrione (B) and Pyroxasulfone (C-19)
Herbicide A-1 (342 g/l), mesotrione (100 g/l) and pyroxasulfone (500 g/l) were, together with addition of 0.5 v/v % MSO (methylated sed oil) as adjuvant, formulated in water as distribution medium (water volume 200 l/ha) and sprayed with commercial flat fan nozzles.

The next experiment relates to Panicum dichotomiflorum. As to the kind of experiment: Example 1 post-emergence greenhouse trial, PANDI. The note with it: growth stage 13, 21 DAT, g ai/ha: A-1 4, B 62.5. How it is done: In the examples below, using the method of S. R. Colby (1967) “Calculating synergistic and antagonistic responses of herbicide combinations”, Weeds 15, p. 22ff., the value E, which is expected if the activity of the individual active compounds is only additive, was calculated: [formula] • where • X=percent activity using active herbicide A at an application rate a; • Y=percent activity using active herbicide B (e.g. mesotrione) at an application rate b; • E=expected activity (in %) by A+B at application rates a+b. If the value found experimentally is higher than the value E calculated according to Colby, a synergistic effect is present. The culture containers used were plastic pots containing loamy sand with approximately 3.0% of humus as substrate. The seeds of the test plants were sown separately for each species. For the post-emergence treatment, the test plants were grown to a plant height of from 3 to 15 cm, depending on the plant habit, and only then treated with the active compounds which had been suspended or emulsified in water. To this end, the test plants were either sown directly, and grown in the same containers, or they were first grown separately as seedlings and transplanted into the test containers a few days prior to treatment. […] During this time, the plants were tended and their response to the individual treatments was evaluated. […]

The subject of another experiment is Lolium multiflorum. Briefly: Example 3 post-emergence field trial, LOLMU. The note with it: height 20-25 cm. The method, then:
(§1) In the examples below, using the method of S. R. Colby (1967) “Calculating synergistic and antagonistic responses of herbicide combinations”, Weeds 15, p. 22ff., the value E, which is expected if the activity of the individual active compounds is only additive, was calculated: [formula] • where • X=percent activity using active herbicide A at an application rate a; • Y=percent activity using active herbicide B (e.g. mesotrione) at an application rate b; • E=expected activity (in %) by A+B at application rates a+b. If the value found experimentally is higher than the value E calculated according to Colby, a synergistic effect is present. Evaluation was carried out using a scale from 0 to 100. 100 means no emergence of the plants, or complete destruction of at least the above-ground parts, and 0 means no damage or normal course of growth. A good herbicidal activity is given at values of at least 70, and very good herbicidal activity is given at values of at least 85. Post-Emergence Application of Herbicide A-1 (A-1) and Mesotrione (B) in Field Trials Herbicide A-1 (342 g/l) and mesotrione (100 g/l) were, together with addition of 0.5 v/v % MSO (methylated sed oil) as adjuvant, formulated in water as distribution medium (water volume 200 l/ha) and sprayed with commercial flat fan nozzles.

Experiment [2] relates to Zea mays. As to the kind of experiment: Example 3 post-emergence field trial, ZEAMX. How it is done:
as §1

Setting [3] is: 7 DAT, g ai/ha: A-1 12.5, B 105.
[4] abbreviates: 7 DAT, g ai/ha: A-1 12.5, B 210.
[5] abbreviates: height 27-33 cm, 7 DAT, g ai/ha: A-1 12.5, B 105.
The mark [6] stands for this setting: height 27-33 cm, 7 DAT, g ai/ha: A-1 12.5, B 210.
[7] abbreviates: height 27-33 cm, 7 DAT, g ai/ha: A-1 18, B 105.
Where [8] appears, read: height 27-33 cm, 7 DAT, g ai/ha: A-1 18, B 210.
Where [9] appears, read: height 27-33 cm, 21 DAT, g ai/ha: A-1 12.5, B 105.
The mark [10] stands for this setting: height 27-33 cm, 21 DAT, g ai/ha: A-1 12.5, B 210.
[11] abbreviates: height 27-33 cm, 21 DAT, g ai/ha: A-1 18, B 105.
Where [12] appears, read: height 27-33 cm, 21 DAT, g ai/ha: A-1 18, B 210.
[13] abbreviates: height 27-33 cm, 28 DAT, g ai/ha: A-1 12.5, B 105.
Where [14] appears, read: height 27-33 cm, 28 DAT, g ai/ha: A-1 12.5, B 210.
[15] abbreviates: height 27-33 cm, 28 DAT, g ai/ha: A-1 18, B 105.
Setting [16] is: height 27-33 cm, 28 DAT, g ai/ha: A-1 18, B 210.
The mark [17] stands for this setting: height 40-60 cm, 7 DAT, g ai/ha: A-1 12.5, B 105.
Where [18] appears, read: height 40-60 cm, 7 DAT, g ai/ha: A-1 12.5, B 210.
The mark [19] stands for this setting: height 40-60 cm, 7 DAT, g ai/ha: A-1 18, B 105.
Setting [20] is: height 40-60 cm, 7 DAT, g ai/ha: A-1 18, B 210.

Structures are written as SMILES.

With `CS(=O)(=O)c1ccc(C(=O)C2C(=O)CCCC2=O)c([N+](=O)[O-])c1` [B, mesotrione], the “% herbicidal activity” value in the experiment on Zea mays [1] was found to be 0%; with Panicum dichotomiflorum, 0%; in the experiment on Lolium multiflorum (setting [3]), 30%; in the experiment on Lolium multiflorum (setting [4]) it was 30%; in the experiment with Lolium multiflorum (7 DAT, g ai/ha: A-1 18, B 105) it was 30%; in the experiment on Lolium multiflorum (7 DAT, g ai/ha: A-1 18, B 210), 30%. In addition, the “% herbicidal activity” value was 30% with Lolium multiflorum (21 DAT, g ai/ha: A-1 18, B 210); 30% with Lolium multiflorum (28 DAT, g ai/ha: A-1 18, B 210); 0% in the experiment with Zea mays [2] (setting [5]); 0% in the experiment with Zea mays [2] (setting [6]); 0% in the experiment on Zea mays [2] (setting [7]); 0% with Zea mays [2] (setting [8]). Besides, the “% herbicidal activity” value with Zea mays [2] (setting [9]), in the experiment with Zea mays [2] (setting [10]), in the experiment with Zea mays [2] (setting [11]), in the experiment with Zea mays [2] (setting [12]), in the experiment on Zea mays [2] (setting [13]) and with Zea mays [2] (setting [14]) was 0% throughout. For the same compound, the “% herbicidal activity” value was 0% in the experiment on Zea mays [2] (setting [15]); 0% in the experiment with Zea mays [2] (setting [16]); 5% in the experiment on Zea mays [2] (setting [17]); 5% with Zea mays [2] (setting [18]); 5% in the experiment on Zea mays [2] (setting [19]); 5% in the experiment on Zea mays [2] (setting [20]).

Turning to `CCOC(=O)COc1ccccc1Oc1nc(-n2c(=O)cc(C(F)(F)F)n(C)c2=O)c(F)cc1Cl` [A-1, ethyl 2-[2-[[3-chloro-5-fluoro-6-[3-methyl-2,6-dioxo-4-(trifluoromethyl)pyrimidin-1-yl]-2-pyridyl]oxy]phenoxy]acetate], the “% herbicidal activity” value with Zea mays [1] was found to be 40%; in the experiment on Panicum dichotomiflorum, 95%; with Lolium multiflorum (setting [3]), 60%; with Lolium multiflorum (setting [4]), 60%; in the experiment on Lolium multiflorum (7 DAT, g ai/ha: A-1 18, B 105), 65%; in the experiment on Lolium multiflorum (7 DAT, g ai/ha: A-1 18, B 210), 70%. The “% herbicidal activity” value in the experiment on Lolium multiflorum (21 DAT, g ai/ha: A-1 18, B 210) worked out at 40%; in the experiment with Lolium multiflorum (28 DAT, g ai/ha: A-1 18, B 210), 40%; in the experiment with Zea mays [2] (setting [5]), 30%; in the experiment on Zea mays [2] (setting [6]), 45%; in the experiment on Zea mays [2] (setting [7]), 40%; with Zea mays [2] (setting [8]), 55%. Also, the “% herbicidal activity” value in the experiment with Zea mays [2] (setting [9]) is listed as 80%; in the experiment on Zea mays [2] (setting [10]) it was 85%; in the experiment on Zea mays [2] (setting [11]), 90%; in the experiment on Zea mays [2] (setting [12]) it was 80%; in the experiment with Zea mays [2] (setting [13]), 80%; with Zea mays [2] (setting [14]), 80%. The “% herbicidal activity” value in the experiment on Zea mays [2] (setting [15]) was 88%; in the experiment with Zea mays [2] (setting [16]) it was 85%; in the experiment with Zea mays [2] (setting [17]) it was 85%; in the experiment with Zea mays [2] (setting [18]), 85%; with Zea mays [2] (setting [19]), 85%; in the experiment with Zea mays [2] (setting [20]) it was 85%.
